Measurements as given in the NIST ThermoML archive (doi:10.1021/je301167q).
Numbers after ± are expanded uncertainties.

Columns and labels:
[1] = 101 kPa, Liquid; for speed of sound: Sing-around technique in a fixed-path interferometer
[2] = xn = mol fraction of the nth substance listed; details: 101 kPa, Liquid; for speed of sound: Sing-around technique in a fixed-path interferometer

CCCCN [1-butanamine]
[1]
Details | mass density [kg/m3] | speed of sound [m/s]
298.15 K | 733.33 ± 1.1 | 1246.5 ± 0.9
308.15 K | 723.67 ± 1.1 | 1201.3 ± 0.9
318.15 K | 714 ± 1.2 | 1156.2 ± 0.9

CCCCN [1-butanamine] + CCCCCCCC[n+]1ccn(C)c1.F[B-](F)(F)F
[2]
Details | mass density, 298.15 K [kg/m3] | mass density, 308.15 K [kg/m3] | mass density, 318.15 K [kg/m3] | speed of sound, 298.15 K [m/s] | speed of sound, 308.15 K [m/s] | speed of sound, 318.15 K [m/s]
x2 = 0 | 733.33 ± 1.1 | 723.67 ± 1.1 | 714 ± 1.2 | 1246.5 ± 0.9 | 1201.3 ± 0.9 | 1156.2 ± 0.9
x2 = 0.0963 | 817.1 ± 0.88 | 807.93 ± 0.91 | 800.03 ± 0.93 | 1276.5 ± 0.9 | 1235 ± 0.9 | 1193.1 ± 0.9
x2 = 0.1917 | 880.04 ± 0.73 | 871.4 ± 0.75 | 863.91 ± 0.77 | 1309 ± 1 | 1270.6 ± 1 | 1232 ± 0.9
x2 = 0.2948 | 932.2 ± 0.62 | 924.07 ± 0.64 | 916.37 ± 0.66 | 1344.1 ± 1 | 1309 ± 1 | 1274 ± 1
x2 = 0.3866 | 968.66 ± 0.56 | 960.74 ± 0.57 | 953.13 ± 0.59 | 1371.6 ± 1 | 1338.8 ± 1 | 1306.4 ± 1
x2 = 0.49 | 1001.63 ± 0.51 | 993.95 ± 0.52 | 986.41 ± 0.53 | 1398.9 ± 1.1 | 1368.2 ± 1.1 | 1337.9 ± 1.1
x2 = 0.5895 | 1027.36 ± 0.57 | 1019.96 ± 0.56 | 1012.6 ± 0.54 | 1421.3 ± 1.1 | 1391.9 ± 1.1 | 1363.3 ± 1.1
x2 = 0.7124 | 1053.43 ± 0.65 | 1046.28 ± 0.63 | 1039.31 ± 0.62 | 1442.7 ± 1.2 | 1414.8 ± 1.2 | 1387.4 ± 1.1
x2 = 0.7925 | 1067.91 ± 0.7 | 1060.88 ± 0.68 | 1053.97 ± 0.67 | 1454.2 ± 1.2 | 1427.1 ± 1.2 | 1400 ± 1.2
x2 = 0.8843 | 1082.31 ± 0.76 | 1075.48 ± 0.74 | 1068.67 ± 0.72 | 1465.8 ± 1.2 | 1438.8 ± 1.2 | 1412.3 ± 1.2

CCCCN [1-butanamine] + CCCCCCn1cc[n+](C)c1.F[B-](F)(F)F
[2]
Details | mass density, 298.15 K [kg/m3] | mass density, 308.15 K [kg/m3] | mass density, 318.15 K [kg/m3] | speed of sound, 298.15 K [m/s] | speed of sound, 308.15 K [m/s] | speed of sound, 318.15 K [m/s]
x2 = 0 | 733.33 ± 1.1 | 723.67 ± 1.1 | 714 ± 1.2 | 1246.5 ± 0.9 | 1201.3 ± 0.9 | 1156.2 ± 0.9
x2 = 0.0994 | 820.09 ± 0.88 | 810.83 ± 0.9 | 803.47 ± 0.92 | 1272.3 ± 0.9 | 1231.1 ± 0.9 | 1188.8 ± 0.9
x2 = 0.2012 | 890.48 ± 0.71 | 881.55 ± 0.73 | 874.79 ± 0.75 | 1305.8 ± 1 | 1267.4 ± 1 | 1229 ± 0.9
x2 = 0.302 | 946.28 ± 0.6 | 937.89 ± 0.61 | 930.48 ± 0.63 | 1341 ± 1 | 1305.5 ± 1 | 1270.1 ± 1
x2 = 0.4065 | 993.19 ± 0.52 | 985.04 ± 0.53 | 977.3 ± 0.55 | 1376.3 ± 1 | 1343.8 ± 1 | 1312 ± 1
x2 = 0.4959 | 1026.43 ± 0.56 | 1018.45 ± 0.55 | 1010.64 ± 0.53 | 1404.6 ± 1.1 | 1374.3 ± 1.1 | 1344.3 ± 1.1
x2 = 0.5886 | 1055.62 ± 0.64 | 1047.87 ± 0.62 | 1040.15 ± 0.6 | 1428.9 ± 1.1 | 1401.1 ± 1.1 | 1373.6 ± 1.1
x2 = 0.7069 | 1086.83 ± 0.74 | 1079.26 ± 0.72 | 1071.7 ± 0.7 | 1456.2 ± 1.1 | 1429.9 ± 1.1 | 1403.8 ± 1.1
x2 = 0.8126 | 1110.28 ± 0.82 | 1102.83 ± 0.8 | 1095.43 ± 0.78 | 1474.1 ± 1.2 | 1450.2 ± 1.2 | 1423.8 ± 1.2
x2 = 0.8796 | 1123.46 ± 0.87 | 1116.13 ± 0.85 | 1108.89 ± 0.83 | 1483.2 ± 1.2 | 1459.8 ± 1.2 | 1433.9 ± 1.2

CCCCCCn1cc[n+](C)c1.F[B-](F)(F)F [1-hexyl-3-methylimidazolium tetrafluoroborate]
[1]
Details | mass density [kg/m3] | speed of sound [m/s]
298.15 K | 1145.11 ± 0.96 | 1496.7 ± 1.3
308.15 K | 1137.71 ± 0.94 | 1472 ± 1.3
318.15 K | 1130.49 ± 0.92 | 1447.7 ± 1.3

CCCCCCn1cc[n+](C)c1.F[B-](F)(F)F [1-hexyl-3-methylimidazolium tetrafluoroborate] + CCCCCCCCN
[2], x1 = 1
Details | mass density [kg/m3] | speed of sound [m/s]
298.15 K | 1145.11 ± 0.96 | 1496.7 ± 1.3
308.15 K | 1137.71 ± 0.94 | 1472 ± 1.3
318.15 K | 1130.49 ± 0.92 | 1447.7 ± 1.3

CCCCCCn1cc[n+](C)c1.F[B-](F)(F)F [1-hexyl-3-methylimidazolium tetrafluoroborate] + CCCCN
[2], x1 = 1
Details | mass density [kg/m3] | speed of sound [m/s]
298.15 K | 1145.11 ± 0.96 | 1496.7 ± 1.3
308.15 K | 1137.71 ± 0.94 | 1472 ± 1.3
318.15 K | 1130.49 ± 0.92 | 1447.7 ± 1.3

CCCCCCCC[n+]1ccn(C)c1.F[B-](F)(F)F [1-methyl-3-octylimidazolium tetrafluoroborate]
[1]
Details | mass density [kg/m3] | speed of sound [m/s]
298.15 K | 1097.61 ± 0.83 | 1481.1 ± 1.3
308.15 K | 1090.9 ± 0.81 | 1453.9 ± 1.3
318.15 K | 1084.17 ± 0.79 | 1428.2 ± 1.3

CCCCCCCC[n+]1ccn(C)c1.F[B-](F)(F)F [1-methyl-3-octylimidazolium tetrafluoroborate] + CCCCCCCCN
[2], x1 = 1
Details | mass density [kg/m3] | speed of sound [m/s]
298.15 K | 1097.61 ± 0.83 | 1481.1 ± 1.3
308.15 K | 1090.9 ± 0.81 | 1453.9 ± 1.3
318.15 K | 1084.17 ± 0.79 | 1428.2 ± 1.3

CCCCCCCC[n+]1ccn(C)c1.F[B-](F)(F)F [1-methyl-3-octylimidazolium tetrafluoroborate] + CCCCN
[2], x1 = 1
Details | mass density [kg/m3] | speed of sound [m/s]
298.15 K | 1097.61 ± 0.83 | 1481.1 ± 1.3
308.15 K | 1090.9 ± 0.81 | 1453.9 ± 1.3
318.15 K | 1084.17 ± 0.79 | 1428.2 ± 1.3

CCCCCCCCN [1-octanamine]
[1]
Details | mass density [kg/m3] | speed of sound [m/s]
298.15 K | 777.45 ± 1 | 1343.2 ± 1.1
308.15 K | 769.46 ± 1 | 1303.1 ± 1.1
318.15 K | 761.47 ± 1.1 | 1263.5 ± 1.1

CCCCCCCCN [1-octanamine] + CCCCCCCC[n+]1ccn(C)c1.F[B-](F)(F)F
[2]
Details | mass density, 298.15 K [kg/m3] | mass density, 308.15 K [kg/m3] | mass density, 318.15 K [kg/m3] | speed of sound, 298.15 K [m/s] | speed of sound, 308.15 K [m/s] | speed of sound, 318.15 K [m/s]
x2 = 0 | 777.45 ± 1 | 769.46 ± 1 | 761.47 ± 1.1 | 1343.2 ± 1.1 | 1303.1 ± 1.1 | 1263.5 ± 1.1
x2 = 0.1563 | 851.54 ± 0.83 | 843.71 ± 0.85 | 835.78 ± 0.87 | 1353.1 ± 1.1 | 1314.6 ± 1.1 | 1276.9 ± 1.1
x2 = 0.3025 | 910.65 ± 0.7 | 902.92 ± 0.72 | 895.08 ± 0.74 | 1370.2 ± 1.1 | 1334.4 ± 1.1 | 1299 ± 1.1
x2 = 0.4175 | 951.05 ± 0.63 | 943.4 ± 0.64 | 935.73 ± 0.66 | 1387.6 ± 1.2 | 1353.8 ± 1.2 | 1320.5 ± 1.2
x2 = 0.5225 | 983.58 ± 0.57 | 976.2 ± 0.58 | 968.62 ± 0.6 | 1404.3 ± 1.2 | 1372.4 ± 1.2 | 1340.9 ± 1.2
x2 = 0.6252 | 1011.86 ± 0.57 | 1004.63 ± 0.56 | 997.3 ± 0.55 | 1420.9 ± 1.2 | 1390.6 ± 1.2 | 1360.7 ± 1.2
x2 = 0.7202 | 1035.54 ± 0.63 | 1028.44 ± 0.62 | 1021.3 ± 0.6 | 1436.5 ± 1.2 | 1407.1 ± 1.2 | 1378.4 ± 1.2
x2 = 0.794 | 1052.58 ± 0.68 | 1045.53 ± 0.67 | 1038.51 ± 0.65 | 1449 ± 1.2 | 1419.9 ± 1.2 | 1392.2 ± 1.2
x2 = 0.7994 | 1053.88 ± 0.69 | 1046.83 ± 0.67 | 1039.75 ± 0.65 | 1449.2 ± 1.2 | 1421.1 ± 1.2 | 1393.2 ± 1.2
x2 = 0.8691 | 1069.21 ± 0.73 | 1062.23 ± 0.72 | 1055.21 ± 0.7 | 1461.3 ± 1.3 | 1432.7 ± 1.3 | 1405.8 ± 1.3
x2 = 0.9259 | 1081.47 ± 0.77 | 1074.59 ± 0.76 | 1067.76 ± 0.74 | 1470.5 ± 1.3 | 1442.2 ± 1.3 | 1416.1 ± 1.3

CCCCCCCCN [1-octanamine] + CCCCCCn1cc[n+](C)c1.F[B-](F)(F)F
[2]
Details | mass density, 298.15 K [kg/m3] | mass density, 308.15 K [kg/m3] | mass density, 318.15 K [kg/m3] | speed of sound, 298.15 K [m/s] | speed of sound, 308.15 K [m/s] | speed of sound, 318.15 K [m/s]
x2 = 0 | 777.45 ± 1 | 769.46 ± 1 | 761.47 ± 1.1 | 1343.2 ± 1.1 | 1303.1 ± 1.1 | 1263.5 ± 1.1
x2 = 0.2986 | 914.74 ± 0.7 | 906.98 ± 0.71 | 899.32 ± 0.73 | 1365.4 ± 1.1 | 1331.6 ± 1.1 | 1306.8 ± 1.1
x2 = 0.398 | 954.27 ± 0.62 | 946.51 ± 0.64 | 938.79 ± 0.65 | 1379.9 ± 1.2 | 1345.6 ± 1.1 | 1317.5 ± 1.1
x2 = 0.4981 | 991.03 ± 0.56 | 983.38 ± 0.57 | 975.59 ± 0.59 | 1396.2 ± 1.2 | 1364.9 ± 1.2 | 1333.8 ± 1.2
x2 = 0.5999 | 1025.72 ± 0.6 | 1017.96 ± 0.59 | 1010.27 ± 0.57 | 1416.6 ± 1.2 | 1386.2 ± 1.2 | 1356.4 ± 1.2
x2 = 0.6994 | 1057.35 ± 0.69 | 1049.51 ± 0.67 | 1041.89 ± 0.65 | 1437.5 ± 1.2 | 1409.6 ± 1.2 | 1381.5 ± 1.2
x2 = 0.7998 | 1087.45 ± 0.78 | 1079.76 ± 0.76 | 1072.25 ± 0.74 | 1460.3 ± 1.2 | 1433.5 ± 1.2 | 1408.2 ± 1.2
x2 = 0.8945 | 1114.95 ± 0.87 | 1107.34 ± 0.84 | 1099.87 ± 0.82 | 1479.6 ± 1.3 | 1455.6 ± 1.3 | 1431.7 ± 1.3
